Species on record: Rattus norvegicus
Experiment: Open TG-GATES - Regimen: Daily Repeat
Type: toxicity, organism-based, Sprague-Dawley
Design: regimen Daily Repeat, gender Male, age 6 weeks
Settings: in vivo, po, 0 mg/kg, route gavage, dose level Control; for APTT / Bas / Eos / Fbg / Hb / Ht / Lym / MCH / MCHC / MCV / Mono / Neu / PT / Plat / RBC / Ret / WBC: tissue Blood; for KIDNEY_L / KIDNEY_R / KIDNEY_TOTAL: tissue Kidney; for LIVER: tissue Liver; for A/G / ALP / ALT / AST / BUN / CRE / Ca / Cl / DBIL / GLC / IP / K / LDH / Na / PL / RALB / TBIL / TC / TG / TP / gamma-GTP: tissue Plasma

CC(=O)[C@@]1(O)CC[C@H]2[C@@H]3C=C(Cl)C4=CC(=O)CC[C@]4(C)[C@H]3CC[C@@]21C [CHLORMADINONE] showed a TERMINAL_BW (72 h, time 3 day) of 240.6 g, an APTT (72 h, time 3 day) of 23.6 s and a Bas (72 h, time 3 day) of 0%. It also gave an Eos (72 h, time 3 day) of 1%, a Fbg (72 h, time 3 day) of 295 mg/dL and a Hb (72 h, time 3 day) of 13.3 g/dL. For the same compound, the Ht (72 h, time 3 day) was 40.9%, the Lym (72 h, time 3 day) was 77.6% and the MCH (72 h, time 3 day) was 20.3 pg. For the same compound, the MCHC (72 h, time 3 day) was 32.6%, the MCV (72 h, time 3 day) was 62.4 fL and the Mono (72 h, time 3 day) was 2.6%. It also gave a Neu (72 h, time 3 day) of 18.4%, a PT (72 h, time 3 day) of 15.6 s and a Plat (72 h, time 3 day) of 116.7 x10_4/uL. For the same compound, the RBC (72 h, time 3 day) was 656 x10_4/ul, the Ret (72 h, time 3 day) was 6.4% and the WBC (72 h, time 3 day) was 122.2 x10_2/uL. For the same compound, the KIDNEY_L (72 h, time 3 day) was 1 g, the KIDNEY_R (72 h, time 3 day) was 1 g and the KIDNEY_TOTAL (72 h, time 3 day) was 2 g. The LIVER (72 h, time 3 day) was 10.8 g, the A/G (72 h, time 3 day) was 1.2 and the ALP (72 h, time 3 day) was 1828 IU/L. The ALT (72 h, time 3 day) was 43.8 IU/L, the AST (72 h, time 3 day) was 82 IU/L and the BUN (72 h, time 3 day) was 18.8 mg/dL. It also gave a CRE (72 h, time 3 day) of 0.2 mg/dL, a Ca (72 h, time 3 day) of 10.8 mg/dL and a Cl (72 h, time 3 day) of 105.8 meq/L. The DBIL (72 h, time 3 day) was 0 mg/dL, the GLC (72 h, time 3 day) was 190.6 mg/dL and the IP (72 h, time 3 day) was 7 mg/dL. For the same compound, the K (72 h, time 3 day) was 4.3 meq/L, the LDH (72 h, time 3 day) was 300.6 IU/L and the Na (72 h, time 3 day) was 141.6 meq/L. The PL (72 h, time 3 day) was 151.2 mg/dL, the RALB (72 h, time 3 day) was 3 g/dL and the TBIL (72 h, time 3 day) was 0.008 mg/dL. For the same compound, the TC (72 h, time 3 day) was 72.2 mg/dL, the TG (72 h, time 3 day) was 114.8 mg/dL and the TP (72 h, time 3 day) was 5.4 g/dL. For the same compound, the gamma-GTP (72 h, time 3 day) was 1.4 IU/L, the TERMINAL_BW ([…], time 7 day) was 267.1 g and the TERMINAL_BW ([…], time 14 day) was 325.5 g. It also gave a TERMINAL_BW ([…], time 28 day) of 410.9 g, an APTT ([…], time 7 day) of 24.1 s and a Bas ([…], time 7 day) of 0%. The Eos ([…], time 7 day) was 0.8%, the Fbg ([…], time 7 day) was 337 mg/dL and the Hb ([…], time 7 day) was 13.8 g/dL. For the same compound, the Ht ([…], time 7 day) was 41.5%, the Lym ([…], time 7 day) was 80.8% and the MCH ([…], time 7 day) was 20.3 pg. For the same compound, the MCHC ([…], time 7 day) was 33.1%, the MCV ([…], time 7 day) was 61.1 fL and the Mono ([…], time 7 day) was 2.2%. For the same compound, the Neu ([…], time 7 day) was 15.2%, the PT ([…], time 7 day) was 15.6 s and the Plat ([…], time 7 day) was 112.3 x10_4/uL. The RBC ([…], time 7 day) was 680 x10_4/ul, the Ret ([…], time 7 day) was 5.6% and the WBC ([…], time 7 day) was 129.9 x10_2/uL. It also gave an APTT ([…], time 14 day) of 23.6 s, a Bas ([…], time 14 day) of 0% and an Eos ([…], time 14 day) of 0.8%. The Fbg ([…], time 14 day) was 320.6 mg/dL, the Hb ([…], time 14 day) was 14 g/dL and the Ht ([…], time 14 day) was 41.9%. For the same compound, the Lym ([…], time 14 day) was 80.8%, the MCH ([…], time 14 day) was 19.9 pg and the MCHC ([…], time 14 day) was 33.5%. It also gave an MCV ([…], time 14 day) of 59.5 fL, a Mono ([…], time 14 day) of 2.2% and a Neu ([…], time 14 day) of 15.2%. For the same compound, the PT ([…], time 14 day) was 15.4 s, the Plat ([…], time 14 day) was 100.4 x10_4/uL and the RBC ([…], time 14 day) was 704 x10_4/ul. It also gave a Ret ([…], time 14 day) of 5.2%, a WBC ([…], time 14 day) of 126.8 x10_2/uL and an APTT ([…], time 28 day) of 24.8 s. For the same compound, the Bas ([…], time 28 day) was 0%, the Eos ([…], time 28 day) was 0.8% and the Fbg ([…], time 28 day) was 325 mg/dL. It also gave a Hb ([…], time 28 day) of 15.2 g/dL, a Ht ([…], time 28 day) of 44% and a Lym ([…], time 28 day) of 82.2%. For the same compound, the MCH ([…], time 28 day) was 19.5 pg, the MCHC ([…], time 28 day) was 34.4% and the MCV ([…], time 28 day) was 56.5 fL. The Mono ([…], time 28 day) was 2%, the Neu ([…], time 28 day) was 14.2% and the PT ([…], time 28 day) was 15.5 s. It also gave a Plat ([…], time 28 day) of 100.5 x10_4/uL, an RBC ([…], time 28 day) of 779 x10_4/ul and a Ret ([…], time 28 day) of 3%. The WBC ([…], time 28 day) was 118.3 x10_2/uL, the KIDNEY_L ([…], time 7 day) was 1.1 g and the KIDNEY_R ([…], time 7 day) was 1.1 g. For the same compound, the KIDNEY_TOTAL ([…], time 7 day) was 2.2 g, the KIDNEY_L ([…], time 14 day) was 1.2 g and the KIDNEY_R ([…], time 14 day) was 1.2 g. The KIDNEY_TOTAL ([…], time 14 day) was 2.5 g, the KIDNEY_L ([…], time 28 day) was 1.4 g and the KIDNEY_R ([…], time 28 day) was 1.4 g. The KIDNEY_TOTAL ([…], time 28 day) was 2.9 g, the LIVER ([…], time 7 day) was 12.3 g and the LIVER ([…], time 14 day) was 14.3 g. For the same compound, the LIVER ([…], time 28 day) was 17.2 g, the A/G ([…], time 7 day) was 1.2 and the ALP ([…], time 7 day) was 1354.8 IU/L. The ALT ([…], time 7 day) was 39.4 IU/L, the AST ([…], time 7 day) was 67.8 IU/L and the BUN ([…], time 7 day) was 18.8 mg/dL. The CRE ([…], time 7 day) was 0.2 mg/dL, the Ca ([…], time 7 day) was 10.8 mg/dL and the Cl ([…], time 7 day) was 105.8 meq/L. For the same compound, the DBIL ([…], time 7 day) was 0 mg/dL, the GLC ([…], time 7 day) was 200.8 mg/dL and the IP ([…], time 7 day) was 7 mg/dL. The K ([…], time 7 day) was 4.2 meq/L, the LDH ([…], time 7 day) was 158.4 IU/L and the Na ([…], time 7 day) was 140.6 meq/L. It also gave a PL ([…], time 7 day) of 147.2 mg/dL, an RALB ([…], time 7 day) of 3.1 g/dL and a TBIL ([…], time 7 day) of 0.01 mg/dL. For the same compound, the TC ([…], time 7 day) was 76 mg/dL, the TG ([…], time 7 day) was 114.8 mg/dL and the TP ([…], time 7 day) was 5.7 g/dL. For the same compound, the gamma-GTP ([…], time 7 day) was 2.2 IU/L, the A/G ([…], time 14 day) was 1.1 and the ALP ([…], time 14 day) was 1391 IU/L. For the same compound, the ALT ([…], time 14 day) was 37.4 IU/L, the AST ([…], time 14 day) was 64.6 IU/L and the BUN ([…], time 14 day) was 17.6 mg/dL. The CRE ([…], time 14 day) was 0.2 mg/dL, the Ca ([…], time 14 day) was 10.6 mg/dL and the Cl ([…], time 14 day) was 107 meq/L. It also gave a DBIL ([…], time 14 day) of 0 mg/dL, a GLC ([…], time 14 day) of 188 mg/dL and an IP ([…], time 14 day) of 6.6 mg/dL. It also gave a K ([…], time 14 day) of 4 meq/L, an LDH ([…], time 14 day) of 156.6 IU/L and a Na ([…], time 14 day) of 142.2 meq/L. It also gave a PL ([…], time 14 day) of 137.4 mg/dL, an RALB ([…], time 14 day) of 3 g/dL and a TBIL ([…], time 14 day) of 0.016 mg/dL. The TC ([…], time 14 day) was 69.6 mg/dL, the TG ([…], time 14 day) was 112.2 mg/dL and the TP ([…], time 14 day) was 5.7 g/dL. The gamma-GTP ([…], time 14 day) was 2.2 IU/L, the A/G ([…], time 28 day) was 1 and the ALP ([…], time 28 day) was 988 IU/L. It also gave an ALT ([…], time 28 day) of 44.4 IU/L, an AST ([…], time 28 day) of 73.4 IU/L and a BUN ([…], time 28 day) of 21.6 mg/dL. It also gave a CRE ([…], time 28 day) of 0.2 mg/dL, a Ca ([…], time 28 day) of 10.6 mg/dL and a Cl ([…], time 28 day) of 103.8 meq/L. It also gave a DBIL ([…], time 28 day) of 0 mg/dL, a GLC ([…], time 28 day) of 201.4 mg/dL and an IP ([…], time 28 day) of 6.6 mg/dL. It also gave a K ([…], time 28 day) of 4.4 meq/L, an LDH ([…], time 28 day) of 217.4 IU/L and a Na ([…], time 28 day) of 141.2 meq/L. For the same compound, the PL ([…], time 28 day) was 131 mg/dL, the RALB ([…], time 28 day) was 3.1 g/dL and the TBIL ([…], time 28 day) was 0.01 mg/dL. For the same compound, the TC ([…], time 28 day) was 63.2 mg/dL, the TG ([…], time 28 day) was 112.4 mg/dL and the TP ([…], time 28 day) was 6.3 g/dL. For the same compound, the gamma-GTP ([…], time 28 day) was 2.2 IU/L.
